# Measured values as given in PubChem BioAssay AID1850 (Southern Research Specialized Biocontainment Screening …, 2009).
# Test system: Salmonella Typhi PhoP-promoter GFP reporter, fluorescence, 4 h
# Assay: PhoP regulon inhibitors, Salmonella typhi PhoP promoter GFP reporter, confirmatory (AID 1850)
row,Compound,IC50
1,Cc1cccc2c1Sc1ccc(Cl)cc1CC2N1CCNCC1 (stereo not given),78.5 µM
2,CCn1cc(C(=O)O)c(=O)c2cc(F)c(N3CCN(C(=S)NC(=O)c4cc(OC)cc(OC)c4)CC3)cc21,45.8 µM
3,CC(NCC(O)COCCC12CC3CC(CC(C3)C1)C2)c1ccccc1 (stereo not given),31.4 µM
4,CCn1cc(C(=O)O)c(=O)c2ccc(C)nc21,60.4 µM
5,C[n+]1c2n(c3ccccc31)N=C(c1ccc(-c3ccccc3)cc1)CS2,24.8 µM
6,CC[C@H]1OC(=O)C[C@@H](O)[C@H](C)[C@@H](O[C@@H]2O[C@H](C)C[C@H](N(C)C)[C@H]2O)[C@@H](CC=O)C[C@@H](C)C(=O)C=C[C@]2(C)O[C@H]2[C@@H]1C,7.16 µM
7,CCCCOc1ccc(NC2=NC3(CCCCC3)N=C(N)N2)cc1,6.52 µM
8,CCCCNC1=CC(=O)C(=O)c2ccccc21,13.8 µM
9,O=C(Nc1ccc(Cc2ccncc2)cc1)c1ccc([N+](=O)[O-])o1,80.3 µM
10,C#CCOCCOCCOCCNc1nc(N2CCN(C(=O)CCCCCCCCCCNC(=O)Cn3cc(C[C@@H](C)O)nn3)CC2)nc(N2CCN(C(=O)CCCCCCCCCCNC(=O)[C@@H]([C@H](C)CC)n3cc(CCCCCN)nn3)CC2)n1,142 µM
11,COc1ccc(NC2=NC3(CCCCC3)N=C(N)N2)cc1,74 µM
12,O=C(NC(=S)NNC(=O)c1ccco1)c1ccc(Br)cc1,88.4 µM
13,CN1CCc2nc(SCC(=O)Nc3cccc(F)c3)c(C#N)c(-c3cccs3)c2C1,86.2 µM
14,CO[C@H]1C=CO[C@@]2(C)Oc3c(C)c(O)c4c(O)c(c5c(c4c3C2=O)NC2(CCN(CC(C)C)CC2)N=5)=NC(=O)C(C)=CC=C[C@H](C)[C@H](O)[C@@H](C)[C@@H](O)[C@@H](C)[C@H](OC(C)=O)[C@@H]1C,1.53 µM
15,Nc1nc2ccccc2n1CCOc1ccccc1Cl,73.3 µM
16,CCC(/C=C1\Sc2ccc(OC)cc2N1CCO)=C\c1sc2ccc(OC)cc2[n+]1CCO,31.8 µM
17,CC[n+]1c(/C=C/N(C)c2ccccc2)n(-c2ccccc2)c2ccc(-c3nc4ccccc4s3)cc21,5.9 µM
18,Oc1c(Br)cc(Br)cc1C=Nc1cccc2ncccc12,37.2 µM
19,CN1CCN(c2nc3cc(C(F)(F)F)ccc3n3cccc23)CC1,73.7 µM
20,Cc1cccc(NC2=NC3(CCCCC3)N=C(N)N2)c1,36.8 µM
21,Fc1ccc(CCNCc2ccccc2Cl)cc1,73.4 µM
22,O/N=C/c1ccc(OCc2ccccc2)c(Cl)c1,80.6 µM
23,Cc1ccc2sc(N(CCCN(C)C)C(=O)c3ccc(Br)s3)nc2c1C,36.8 µM
24,CC1CCC(C(C)C)C(OC(=O)Cn2c(-c3ccc(Br)cc3)[n+](C)c3ccccc32)C1 (stereo not given),48.7 µM
25,Fc1cccc(Nc2c3c(nc4ccccc24)CCC3)c1,54.3 µM
26,N=c1c2c(n(Cc3ccc(Cl)cc3)c3c1CCC3)CCC2,80.3 µM
27,CCOC(=O)c1ccccc1-n1c(C)cc(C2N=C(N)Nc3nc4ccccc4n32)c1C (stereo not given),36.6 µM
28,C(=N\Nc1ccccn1)/c1cccnc1,33.9 µM

row,Compound,IC50
1,CCC(C)N1CCC2(CC1)N=c1c(c3c4c5c(C)c(O)c3c(O)c1=NC(=O)C(C)=CC=C[C@H](C)[C@H](O)[C@@H](C)[C@@H](O)[C@@H](C)[C@H](OC(C)=O)[C@H](C)[C@@H](OC)C=CO[C@@](C)(O5)C4=O)N2 (stereo not given in full),2.54 µM
2,Cc1ccc(Nc2cc(C)c3c(O)cccc3n2)cc1C,6.64 µM
3,Cc1ccc2c(c1)sc(-c1ccc(N(C)C)cc1)[n+]2C,24.1 µM
4,CN1CCN(C2=Cc3ccccc3Sc3cc(F)c(Cl)cc32)CC1,32.8 µM
5,CN(C)CC/C=C1\c2ccc(F)cc2Sc2cc(F)c(Cl)cc21,32.4 µM
6,c1ccc(Sc2cccc3ccccc23)c(CNC2=NCCN2)c1,68.3 µM
7,Cc1cccc(Nc2cc(C)c3c(O)cccc3n2)c1C,17.4 µM
8,Cc1ccc(C(=O)NNC(=S)NC(=O)c2ccccc2)cc1,62.6 µM
9,COc1ccccc1CNCCc1ccc(F)cc1,24.8 µM
10,Cc1ccc(Nc2cc(C)nn2-c2nc(C)cc(=O)[nH]2)cc1,11.9 µM
11,S=C(Nc1cc(Cl)cc(Cl)c1)NC1CCN(Cc2ccccc2)CC1,80.8 µM
12,N=c1n(CC(=O)c2ccc(Br)s2)c2ccccc2n1Cc1ccccc1,51.8 µM
13,CSc1nc2cc(Oc3cccc(Cl)c3Cl)c(Cl)cc2[nH]1,37.3 µM
14,O=C(Oc1c(Cl)cc(Cl)c2cccnc12)c1ccco1,14.6 µM
15,O=C(Nc1cccnc1)c1cc(Br)c(Br)s1,19.1 µM
16,O=C(Nc1ccc(Cl)cc1)N1CCCN(Cc2ccccc2F)C1,34.9 µM
17,O=C(Oc1c(Cl)cc(Cl)c2cccnc12)c1cccc([N+](=O)[O-])c1,8.4 µM
18,Cc1cc(C2N=C(N)Nc3nc4ccccc4n32)c(C)n1-c1ccccc1Cl (stereo not given),32 µM
19,O=C(N/N=C/c1ccccn1)c1cccs1,71.6 µM
20,O=c1c2ccccc2[nH]c2ccc(F)cc12,75.7 µM
21,O=C(NC1CCCC1)c1ccc(Br)s1,20.3 µM
22,NC(=O)c1ccc(N=C2C(=O)Nc3ccc([N+](=O)[O-])cc32)cc1,34.6 µM
23,O=S1(=O)CC=C(CSC(=S)NC2CCS(=O)(=O)C2)C1 (stereo not given),78.4 µM
24,Cc1nonc1C(=O)N/N=C/c1ccc([N+](=O)[O-])o1,37.5 µM
25,NC1=NC[C@H](Cc2ccc(O)cc2)N1CCCCC1CCCCC1,17.7 µM
26,Cc1ccc2nc(N(CCCN(C)C)C(=O)c3sc4ccccc4c3Cl)sc2c1,35.5 µM
27,O=S(=O)(Nc1c(S(=O)(=O)c2ccccc2)c2nc3ccccc3nc2n1C1CCCCC1)c1ccccc1,5.01 µM
